Source: ChEMBL document CHEMBL1153495, “A highly sensitive probe detecting low pH area of HeLa cells based on rhodamine B modified beta-cyclodextrins” (Bioorg Med Chem, 2009)
Active and inactive are the calls of the source. The rule behind the calls is not given here.

Key:
HeLa [1] = experiment: Cytotoxicity against human HeLa cells up to 1000 uM after 48 hrs by MTT assay; format: functional, cell-based
Jurkat = experiment: Cytotoxicity against human Jurkat cells at 1000 uM after 48 hrs by MTT assay; format: functional, cell-based
HeLa [2] = experiment: Drug uptake in human HeLa cells assessed as staining capability after 5 hrs by fluorescence microscopy; format: ADME, cell-based

Row | Structure (SMILES) | Activity (HeLa [1]) | further results
1 | OC[C@H]1O[C@@H]2O[C@H]3[C@H](O)[C@@H](O)[C@@H](O[C@H]4[C@H](O)[C@@H](O)[C@@H](O[C@H]5[C@H](O)[C@@H](O)[C@@H](O[C@H]6[C@H](O)[C@@H](O)[C@@H](O[C@H]7[C@H](O)[C@@H](O)[C@@H](O[C@H]8[C@H](O)[C@@H](O)[C@@H](O[C@H]1[C@H](O)[C@H]2O)O[C@@H]8CO)O[C@@H]7CO)O[C@@H]6CO)O[C@@H]5CO)O[C@@H]4CO)O[C@@H]3CO | inactive | 
2 | NCCNCCNCCNCCNC[C@H]1O[C@@H]2O[C@H]3[C@H](O)[C@@H](O)[C@@H](O[C@@H]4[C@@H](O)[C@H](O)[C@H](O[C@@H]5[C@@H](O)[C@H](O)[C@H](O[C@@H]6[C@@H](O)[C@H](O)[C@H](O[C@@H]7[C@@H](O)[C@H](O)[C@H](O[C@H]8[C@H](O)[C@@H](O)[C@@H](O[C@H]1[C@H](O)[C@H]2O)O[C@@H]8CO)O[C@H]7CO)O[C@H]6CO)O[C@H]5CO)O[C@H]4CO)O[C@@H]3CO | inactive | Activity (Jurkat): Active
3 | CCN(CC)c1ccc2c(-c3ccccc3C(=O)NCCNCCNCCNCCNC[C@H]3O[C@@H]4O[C@H]5[C@H](O)[C@@H](O)[C@@H](O[C@@H]6[C@@H](O)[C@H](O)[C@H](O[C@@H]7[C@@H](O)[C@H](O)[C@H](O[C@@H]8[C@@H](O)[C@H](O)[C@H](O[C@@H]9[C@@H](O)[C@H](O)[C@H](O[C@H]%10[C@H](O)[C@@H](O)[C@@H](O[C@H]3[C@H](O)[C@H]4O)O[C@@H]%10CO)O[C@H]9CO)O[C@H]8CO)O[C@H]7CO)O[C@H]6CO)O[C@@H]5CO)c3ccc(=[N+](CC)CC)cc-3oc2c1.[Cl-] |  | Drug uptake (HeLa [2]): 66.6 µM
4 | CCN(CC)c1ccc2c(-c3ccccc3C(=O)O)c3ccc(=[N+](CC)CC)cc-3oc2c1 [RHODAMINE B] |  | Activity (HeLa [2]): Not Active
5 | NCCNC[C@H]1O[C@@H]2O[C@H]3[C@H](O)[C@@H](O)[C@@H](O[C@@H]4[C@@H](O)[C@H](O)[C@H](O[C@@H]5[C@@H](O)[C@H](O)[C@H](O[C@@H]6[C@@H](O)[C@H](O)[C@H](O[C@@H]7[C@@H](O)[C@H](O)[C@H](O[C@H]8[C@H](O)[C@@H](O)[C@@H](O[C@H]1[C@H](O)[C@H]2O)O[C@@H]8CO)O[C@H]7CO)O[C@H]6CO)O[C@H]5CO)O[C@H]4CO)O[C@@H]3CO | inactive | 
